Like-named read-outs stand apart in the source and are kept apart here.
Experiments:
Assay in all cases: Ras-Raf disruption / FRET / MOA assay (BRAF RBD)
Type in all cases: biochemical
[1] = target: KRAS G13D (Homo sapiens, UniProt P01116+P62937, G13D); settings: with Cyclophilin A
Procedure, shortened: (§1)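 Compound-induced Ras–Cyclophilin A ternary complex disrupting BRAF RBD binding, read as IC50 from reduced TR-FRET ratio relative to DMSO. Final: Ras-GMPPNP 12.5 nM, BRAF RBD 50 nM, Cyclophilin A 25 μM, top compound 30 μM (3-fold, 10 points); 3 h at 25 °C, then 1.5 h with detection antibodies.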

[2] = target: NRAS G12C (Homo sapiens, UniProt P01111+P62937, G12C)
Procedure, shortened: as §1

[3] = target: KRAS G12S (Homo sapiens, UniProt P01116+P62937, G12S); settings: with Cyclophilin A
Procedure, shortened: as §1

[4] = target: KRAS G13C (Homo sapiens, UniProt P01116+P62937, G13C); settings: with Cyclophilin A
Procedure, shortened: as §1

[5] = target: KRAS WT (Homo sapiens, UniProt P01116+P62937); settings: with Cyclophilin A
Procedure, shortened: as §1

[6] = target: KRAS G12V (Homo sapiens, UniProt P01116+P62937, G12V); settings: with Cyclophilin A
Procedure, shortened: as §1

[7] = target: KRAS G12D (Homo sapiens, UniProt P01116+P62937, G12D); settings: with Cyclophilin A
Procedure, shortened: as §1

[8] = target: KRAS G12C (Homo sapiens, UniProt P01116+P62937, G12C); settings: with Cyclophilin A
Procedure, shortened: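 TR-FRET read-out after 1.5 h with anti-His Eu-W1024 (10 nM) and anti-GST APC (50 nM), following 3 h at 25 °C of compound (top 30 μM, 3-fold, 10 points) with 25 μM Cyclophilin A, 12.5 nM GMPPNP-loaded K-Ras G12C and 50 nM BRAF RBD; IC50 reported.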

[9] = Ras-Raf disruption, read-out: KRAS G13D FRET data IC50
[10] = NRAS G12C, read-out: NRAS G12C FRET data IC50
[11] = Ras-Raf disruption, read-out: KRAS G12S FRET data IC50
[12] = Ras-Raf disruption, read-out: KRAS G13C FRET data IC50
[13] = Ras-Raf disruption, read-out: KRAS WT FRET data IC50
[14] = Ras-Raf disruption, read-out: KRAS G12V FRET data IC50
[15] = Ras-Raf disruption, read-out: KRAS G12D FRET data IC50
[16] = Ras-Raf disruption, read-out: KRAS G12C FRET data IC50
[17] = KRAS G13D FRET data IC50, Ras-Raf disruption
[18] = NRAS G12C FRET data IC50, NRAS G12C
[19] = KRAS G12S FRET data IC50, Ras-Raf disruption
[20] = KRAS G13C FRET data IC50, Ras-Raf disruption
[21] = KRAS WT FRET data IC50, Ras-Raf disruption
[22] = KRAS G12V FRET data IC50, Ras-Raf disruption
[23] = KRAS G12D FRET data IC50, Ras-Raf disruption
[24] = KRAS G12C FRET data IC50, Ras-Raf disruption

KRAS G12V, sequence (P01116 1-169 isoform P01116-2 G12V limits assumed): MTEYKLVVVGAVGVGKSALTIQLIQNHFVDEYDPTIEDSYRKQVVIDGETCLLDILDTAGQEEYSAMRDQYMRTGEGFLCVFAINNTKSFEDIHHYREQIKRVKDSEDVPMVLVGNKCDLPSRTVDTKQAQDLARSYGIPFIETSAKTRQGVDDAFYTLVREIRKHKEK
KRAS G12V, sequence (P62937 whole entry): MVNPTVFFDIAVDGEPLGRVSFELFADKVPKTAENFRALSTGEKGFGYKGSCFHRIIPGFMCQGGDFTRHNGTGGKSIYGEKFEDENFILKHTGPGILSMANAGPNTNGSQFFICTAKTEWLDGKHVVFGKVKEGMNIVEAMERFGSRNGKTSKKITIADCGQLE
KRAS G12S, sequence (P01116 1-169 isoform P01116-2 G12S limits assumed): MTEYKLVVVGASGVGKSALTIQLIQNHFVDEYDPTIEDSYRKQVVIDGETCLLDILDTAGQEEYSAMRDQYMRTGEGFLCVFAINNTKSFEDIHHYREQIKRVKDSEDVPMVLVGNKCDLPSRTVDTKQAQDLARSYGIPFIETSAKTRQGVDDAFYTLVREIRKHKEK
KRAS G12S, sequence (P62937 whole entry): as the sequence (P62937 whole entry) above
KRAS G13D, sequence (P01116 1-169 isoform P01116-2 G13D limits assumed): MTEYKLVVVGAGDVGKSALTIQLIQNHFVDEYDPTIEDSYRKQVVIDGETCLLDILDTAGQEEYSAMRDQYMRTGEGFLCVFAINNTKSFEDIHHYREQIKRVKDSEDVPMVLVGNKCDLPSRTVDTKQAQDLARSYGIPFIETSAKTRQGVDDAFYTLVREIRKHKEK
KRAS G13D, sequence (P62937 whole entry): as the sequence (P62937 whole entry) above
KRAS WT, sequence (P01116 1-169 isoform P01116-2 limits assumed): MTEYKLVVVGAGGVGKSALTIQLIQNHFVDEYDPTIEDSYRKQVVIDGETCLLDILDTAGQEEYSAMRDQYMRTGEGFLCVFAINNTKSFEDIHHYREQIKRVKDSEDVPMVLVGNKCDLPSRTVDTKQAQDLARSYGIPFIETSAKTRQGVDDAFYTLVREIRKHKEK
KRAS WT, sequence (P62937 whole entry): as the sequence (P62937 whole entry) above
KRAS G12D, sequence (P01116 1-169 isoform P01116-2 G12D limits assumed): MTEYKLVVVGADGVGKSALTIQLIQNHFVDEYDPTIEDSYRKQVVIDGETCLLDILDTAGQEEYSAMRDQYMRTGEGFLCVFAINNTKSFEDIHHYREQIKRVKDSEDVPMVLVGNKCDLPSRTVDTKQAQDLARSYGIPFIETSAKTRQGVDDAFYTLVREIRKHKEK
KRAS G12D, sequence (P62937 whole entry): as the sequence (P62937 whole entry) above
KRAS G12C, sequence (P01116 1-169 isoform P01116-2 G12C limits assumed): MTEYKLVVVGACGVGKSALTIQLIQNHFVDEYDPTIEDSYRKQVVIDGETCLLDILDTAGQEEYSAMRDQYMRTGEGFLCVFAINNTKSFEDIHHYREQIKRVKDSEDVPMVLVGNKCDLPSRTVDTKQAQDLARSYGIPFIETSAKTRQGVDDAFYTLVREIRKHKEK
KRAS G12C, sequence (P62937 whole entry): as the sequence (P62937 whole entry) above
KRAS G13C, sequence (P01116 1-169 isoform P01116-2 G13C limits assumed): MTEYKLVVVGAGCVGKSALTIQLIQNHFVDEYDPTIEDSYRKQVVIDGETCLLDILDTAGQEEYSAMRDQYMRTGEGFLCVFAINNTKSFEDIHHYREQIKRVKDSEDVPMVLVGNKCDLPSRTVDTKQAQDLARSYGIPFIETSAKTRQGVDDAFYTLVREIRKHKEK
KRAS G13C, sequence (P62937 whole entry): as the sequence (P62937 whole entry) above
NRAS G12C, sequence (P01111 whole entry G12C): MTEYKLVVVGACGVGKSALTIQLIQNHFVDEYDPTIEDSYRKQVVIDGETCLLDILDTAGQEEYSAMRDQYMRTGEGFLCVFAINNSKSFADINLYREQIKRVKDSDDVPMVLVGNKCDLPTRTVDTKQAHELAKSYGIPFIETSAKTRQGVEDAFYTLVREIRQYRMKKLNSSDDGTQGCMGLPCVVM
NRAS G12C, sequence (P62937 whole entry): as the sequence (P62937 whole entry) above

| SMILES | IC50 [1, 9] [nM] | IC50 [2, 10] [nM] | IC50 [3, 11] [nM] | IC50 [4, 12] [nM] | IC50 [5, 13] [nM] | IC50 [6, 14] [nM] | IC50 [7, 15] [nM] | IC50 [8, 16] [nM] | IC50 [1, 17] [nM] | IC50 [2, 18] [nM] | IC50 [3, 19] [nM] | IC50 [4, 20] [nM] | IC50 [5, 21] [nM] | IC50 [6, 22] [nM] | IC50 [7, 23] [nM] | IC50 [8, 24] [nM] |
| --- | --- | --- | --- | --- | --- | --- | --- | --- | --- | --- | --- | --- | --- | --- | --- | --- |
| CCn1c(-c2cccnc2[C@H](C)OC)c2c3cc(ccc31)-c1cc(O)cc(c1)C[C@H](NC(=O)[C@H](C(C)C)N(C)C(=O)c1ccc(NC(=O)[C@H]3CN3)cn1)C(=O)N1CCC[C@H](N1)C(=O)OCC(C)(C)C2 [Example 127] | 100 to 1000 | 100 to 1000 | 10 to 100 | 10 to 100 | 100 to 1000 | 100 to 1000 | 100 to 1000 | 100 to 1000 |  |  |  |  |  |  |  |  |
| CCn1c(-c2cccnc2[C@H](C)OC)c2c3cc(ccc31)-c1cc(O)cc(c1)C[C@H](NC(=O)[C@H](C(C)C)N1CC[C@@]3(CCN(C(=O)[C@@H]4N[C@@H]4C4CC4)C3)C1=O)C(=O)N1CCC[C@H](N1)C(=O)OCC(C)(C)C2 [Example 128] | 100 to 1000 | 10 to 100 | 100 to 1000 | 10 to 100 | 100 to 1000 | 100 to 1000 | 100 to 1000 | 10 to 100 |  |  |  |  |  |  |  |  |
| CCn1c(-c2cccnc2[C@H](C)OC)c2c3cc(ccc31)-c1cc(O)cc(c1)C[C@H](NC(=O)[C@H](C(C)C)N1CC[C@@H](NC(=O)[C@@H]3CN3)C1=O)C(=O)N1CCC[C@H](N1)C(=O)OCC(C)(C)C2 [Example 129] |  |  |  |  |  |  |  |  | 10 to 100 | 10 to 100 | 10 to 100 | < 10 | 10 to 100 | 100 to 1000 | 100 to 1000 | 10 to 100 |
| CCn1c(-c2cccnc2[C@H](C)OC)c2c3cc(ccc31)-c1cc(O)cc(c1)C[C@H](NC(=O)[C@H](C(C)C)N1CC[C@@H](NC(=O)[C@H]3CN3)C1=O)C(=O)N1CCC[C@H](N1)C(=O)OCC(C)(C)C2 [Example 130] |  |  |  |  |  |  |  |  | 10 to 100 | 10 to 100 | 10 to 100 | 10 to 100 | 10 to 100 | 100 to 1000 | 100 to 1000 | 10 to 100 |
| CCn1c(-c2cccnc2[C@H](C)OC)c2c3cc(ccc31)-c1cc(O)cc(c1)C[C@H](NC(=O)[C@H](C(C)C)N(C)C(=O)c1ccc([C@@H]3CN3)cc1)C(=O)N1CCC[C@H](N1)C(=O)OCC(C)(C)C2 [Example 131] | 100 to 1000 | 10 to 100 | 100 to 1000 | 10 to 100 | 100 to 1000 | 100 to 1000 | 100 to 1000 | 10 to 100 |  |  |  |  |  |  |  |  |
| CCn1c(-c2cccnc2[C@H](C)OC)c2c3cc(ccc31)-c1csc(n1)C[C@H](NC(=O)[C@H](C1CCCC1)N(C)C(=O)CN(C)C(=O)[C@H]1CN1)C(=O)N1CCC[C@H](N1)C(=O)OCC(C)(C)C2 [Example 132] |  |  |  |  |  |  |  |  | 1000 to 10000 | 100 to 1000 | 1000 to 10000 | 1000 to 10000 | 1000 to 10000 | 1000 to 10000 | 1000 to 10000 | 100 to 1000 |
| CCn1c(-c2cccnc2[C@H](C)OC)c2c3cc(ccc31)-c1cc(O)cc(c1)C[C@H](NC(=O)[C@H](C(C)C)N1CC[C@@]3(CCN(C[C@@H]4CN4)C3)C1=O)C(=O)N1CCC[C@H](N1)C(=O)OCC(C)(C)C2 [Example 138] | 10 to 100 | < 10 | 100 to 1000 | 10 to 100 | 10 to 100 | 1000 to 10000 | 100 to 1000 | 10 to 100 |  |  |  |  |  |  |  |  |
| CCn1c(-c2cccnc2[C@H](C)OC)c2c3cc(ccc31)-c1cc(O)cc(c1)C[C@H](NC(=O)[C@H](C(C)C)N(C)C(=O)N1CCN(C(=O)[C@H]3CN3)C(=O)C1)C(=O)N1CCC[C@H](N1)C(=O)OCC(C)(C)C2 [Example 143] | 10 to 100 | 10 to 100 | 10 to 100 | 10 to 100 | 10 to 100 | 100 to 1000 | 100 to 1000 | 10 to 100 |  |  |  |  |  |  |  |  |
| CCn1c(-c2cccnc2[C@H](C)OC)c2c3cc(ccc31)-c1cc(O)cc(c1)C[C@H](NC(=O)[C@H](C(C)C)N(C)C(=O)c1ccc([C@H]3CN3)cc1)C(=O)N1CCC[C@H](N1)C(=O)OCC(C)(C)C2 [Example 145] | 100 to 1000 | 100 to 1000 | 100 to 1000 | 10 to 100 | 100 to 1000 | 100 to 1000 | 1000 to 10000 | 100 to 1000 |  |  |  |  |  |  |  |  |
| CCn1c(-c2cccnc2[C@H](C)OC)c2c3cc(ccc31)-c1cc(O)cc(c1)C[C@H](NC(=O)[C@H](C(C)C)N1CC[C@]3(CCN(C(=O)[C@H]4CN4)C3)C1=O)C(=O)N1CCC[C@H](N1)C(=O)OCC(C)(C)C2 [Example 146] | 100 to 1000 | < 10 | 10 to 100 | 10 to 100 | 10 to 100 | 10 to 100 | 10 to 100 | < 10 |  |  |  |  |  |  |  |  |
| CCn1c(-c2cccnc2[C@H](C)OC)c2c3cc(ccc31)-c1cc(O)cc(c1)C[C@H](NC(=O)[C@H](C(C)C)N1CC[C@@]3(CCN(C(=O)[C@H]4CN4)C3)C1=O)C(=O)N1CCC[C@H](N1)C(=O)OCC(C)(C)C2 [Example 149] | 10 to 100 | < 10 | 10 to 100 | 10 to 100 | 10 to 100 | 10 to 100 | 100 to 1000 | < 10 |  |  |  |  |  |  |  |  |
| CCn1c(-c2cccnc2[C@H](C)OC)c2c3cc(ccc31)-c1cc(O)cc(c1)C[C@H](NC(=O)[C@H](C(C)C)N(C)C(=O)[C@H]1CCN1C(=O)[C@@H]1CN1)C(=O)N1CCC[C@H](N1)C(=O)OCC(C)(C)C2 [Example 157] |  |  |  |  |  |  |  |  | 10 to 100 | 10 to 100 | 10 to 100 | 10 to 100 | 10 to 100 | 10 to 100 | 100 to 1000 | 10 to 100 |
| CCn1c(-c2cccnc2[C@H](C)OC)c2c3cc(ccc31)-c1cc(O)cc(c1)C[C@H](NC(=O)[C@H](C(C)C)N(C)C(=O)[C@H]1CCN1C(=O)[C@H]1CN1)C(=O)N1CCC[C@H](N1)C(=O)OCC(C)(C)C2 [Example 158] |  |  |  |  |  |  |  |  | 10 to 100 | 10 to 100 | 10 to 100 | 10 to 100 | 10 to 100 | 10 to 100 | 100 to 1000 | 10 to 100 |
| CCn1c(-c2cccnc2[C@H](C)OC)c2c3cc(ccc31)-c1csc(n1)C[C@H](NC(=O)[C@H](C(C)C)N(C)C(=O)N1CCN(C(=O)[C@@H]3CN3)CC1)C(=O)N1CCC[C@H](N1)C(=O)OCC(C)(C)C2 [Example 168] | 100 to 1000 | 10 to 100 | 10 to 100 | 100 to 1000 | 10 to 100 | 100 to 1000 | 100 to 1000 | 10 to 100 |  |  |  |  |  |  |  |  |
| CCn1c(-c2cccnc2[C@H](C)OC)c2c3cc(ccc31)-c1csc(n1)C[C@H](NC(=O)[C@H](C(C)C)N(C)C(=O)N1CCN(C(=O)[C@H]3CN3)CC1)C(=O)N1CCC[C@H](N1)C(=O)OCC(C)(C)C2 [Example 169] | 100 to 1000 | 10 to 100 | 10 to 100 | 10 to 100 | 10 to 100 | 100 to 1000 | 100 to 1000 | 10 to 100 |  |  |  |  |  |  |  |  |
| CCn1c(-c2cccnc2[C@H](C)OC)c2c3cc(ccc31)-c1cc(O)cc(c1)C[C@H](NC(=O)[C@H](C(C)C)N(C)C(=O)[C@@]1(F)CCN(C(=O)[C@H]3CN3)C1)C(=O)N1CCC[C@H](N1)C(=O)OCC(C)(C)C2 [Example 171] | 10 to 100 | < 10 | 10 to 100 | 10 to 100 | 10 to 100 | 10 to 100 | 10 to 100 | < 10 |  |  |  |  |  |  |  |  |
| CCn1c(-c2cccnc2[C@H](C)OC)c2c3cc(ccc31)-c1cc(O)cc(c1)C[C@H](NC(=O)[C@H](C(C)C)N(C)C(=O)[C@@H]1CCN(C(=O)[C@@H]3CN3)C1)C(=O)N1CCC[C@H](N1)C(=O)OCC(C)(C)C2 [Example 172] | 10 to 100 | 10 to 100 | 10 to 100 | 10 to 100 | 10 to 100 | 10 to 100 | 100 to 1000 | 10 to 100 |  |  |  |  |  |  |  |  |

Reference: patent US20230233569A1 (Revolution Medicines, Inc., priority 2020, published 2023)
